From ChEMBL document CHEMBL5528065, “Structure-Activity Relationship of a Pyrrole Based Series of PfPKG Inhibitors as Anti-Malarials” (J Med Chem, 2024)

Experiments:
[1] = target: Voltage-gated inwardly rectifying potassium channel KCNH2 (Homo sapiens, UniProt Q12809); experiment: Inhibition of hERG expressed in HEK293 cells incubated for 30 mins by FluxOR dye based fluorescence analysis; format: toxicity, cell-based
[2] = Intrinsic clearance in CD-1 mouse liver microsomes in presence of NADPH incubated for 60 mins by LC-MS/MS analysis; format: ADME, Microsome; conditions: read-out: CLH
[3] = Half life in CD-1 mouse liver microsomes in presence of NADPH incubated for 60 mins by LC-MS/MS analysis; format: ADME, Microsome
[4] = Protein binding in CD-1 mouse liver microsomes assessed as unbound fraction incubated for 17 hrs by LC-MS analysis; format: ADME, Microsome
Cytochrome P450 2D6 = Cytochrome P450 2D6 (Homo sapiens, UniProt P10635); experiment: Inhibition of human CYP2D6 expressed in baculovirus infected insect cells using AMMC as substrate incubated for 40 mins in presence of NADPH by UPLC-MS analysis; format: ADME
Sequence of Cytochrome P450 2D6 (P10635 whole entry): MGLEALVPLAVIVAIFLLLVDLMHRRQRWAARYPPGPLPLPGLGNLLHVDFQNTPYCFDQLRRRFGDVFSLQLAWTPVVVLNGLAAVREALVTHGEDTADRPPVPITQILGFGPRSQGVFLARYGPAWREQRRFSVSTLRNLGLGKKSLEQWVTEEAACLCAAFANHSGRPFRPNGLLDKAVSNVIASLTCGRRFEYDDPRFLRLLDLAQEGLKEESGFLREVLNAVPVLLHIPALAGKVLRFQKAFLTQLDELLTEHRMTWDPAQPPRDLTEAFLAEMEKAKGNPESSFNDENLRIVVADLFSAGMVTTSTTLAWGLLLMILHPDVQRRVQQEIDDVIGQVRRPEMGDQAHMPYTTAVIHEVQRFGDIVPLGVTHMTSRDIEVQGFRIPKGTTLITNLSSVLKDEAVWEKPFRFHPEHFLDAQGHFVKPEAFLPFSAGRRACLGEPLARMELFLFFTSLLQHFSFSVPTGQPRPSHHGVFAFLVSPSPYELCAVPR

[5] = Stability in CD-1 mouse liver microsomes assessed as remaining compound in absence of NADPH incubated for 60 mins by LC-MS/MS analysis; format: ADME, Microsome; conditions: read-out: Stability
Cytochrome P450 3A4 = Cytochrome P450 3A4 (Homo sapiens, UniProt P08684); experiment: Inhibition of human CYP3A4 expressed in baculovirus infected insect cells using midazolam as substrate incubated for 30 mins in presence of NADPH by UPLC-MS analysis; format: ADME
Sequence of Cytochrome P450 3A4 (P08684 whole entry): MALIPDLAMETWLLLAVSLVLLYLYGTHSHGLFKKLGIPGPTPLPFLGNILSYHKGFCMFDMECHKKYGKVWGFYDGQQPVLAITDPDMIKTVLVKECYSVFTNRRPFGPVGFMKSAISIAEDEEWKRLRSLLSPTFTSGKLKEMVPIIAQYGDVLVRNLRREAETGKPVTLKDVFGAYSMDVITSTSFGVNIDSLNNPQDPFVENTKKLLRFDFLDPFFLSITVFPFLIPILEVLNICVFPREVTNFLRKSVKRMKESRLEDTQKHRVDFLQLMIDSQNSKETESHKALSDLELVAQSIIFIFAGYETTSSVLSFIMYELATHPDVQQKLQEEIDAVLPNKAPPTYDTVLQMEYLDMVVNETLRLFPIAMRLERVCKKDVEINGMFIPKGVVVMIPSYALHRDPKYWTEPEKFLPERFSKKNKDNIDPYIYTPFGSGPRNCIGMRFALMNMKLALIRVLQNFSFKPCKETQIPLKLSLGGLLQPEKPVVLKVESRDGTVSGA

Homo sapiens = species on record: Homo sapiens; experiment: Inhibition of human PKG using FAM-IP3R peptide as fluorescent substrate at 10 uM preincubated for 15 mins followed by substrate addition measured after 1 hr by fluorescence polarization based IMAP assay relative to control; conditions: time 75.0 min
[6] = Apparent permeability in human Caco-2 cells incubated for 120 mins by LC-MS/MS analysis; format: ADME, cell-based
[7] = Intrinsic clearance in human liver microsomes in presence of NADPH incubated for 60 mins by LC-MS/MS analysis; format: ADME, Microsome; conditions: read-out: CLH
Plasmodium falciparum [8] = experiment: Antimalarial activity against drug-sensitive Plasmodium falciparum 3D7 infected in human erythrocytes assessed as reduction in parasitemia incubated for 72 hrs by SYBR green I and Mitotracker deep red dye based flow cytometric analysis; format: functional, organism-based
Plasmodium falciparum [9] = experiment: Antimalarial activity against Plasmodium falciparum expressing PKG T618Q mutant infected in human erythrocytes assessed as reduction in parasitemia incubated for 72 hrs by SYBR green I and Mitotracker deep red dye based flow cytometric analysis; format: functional, organism-based
[10] = Stability in human liver microsomes assessed as remaining compound in absence of NADPH incubated for 60 mins by LC-MS/MS analysis; format: ADME, Microsome; conditions: read-out: Stability
[11] = Half life in human liver microsomes in presence of NADPH incubated for 60 mins by LC-MS/MS analysis; format: ADME, Microsome
Cytochrome P450 2C9 = Cytochrome P450 2C9 (Homo sapiens, UniProt P11712); experiment: Inhibition of human CYP2C9 expressed in baculovirus infected insect cells using MFC as substrate incubated for 30 mins in presence of NADPH by UPLC-MS analysis; format: ADME
Sequence of Cytochrome P450 2C9 (P11712 whole entry): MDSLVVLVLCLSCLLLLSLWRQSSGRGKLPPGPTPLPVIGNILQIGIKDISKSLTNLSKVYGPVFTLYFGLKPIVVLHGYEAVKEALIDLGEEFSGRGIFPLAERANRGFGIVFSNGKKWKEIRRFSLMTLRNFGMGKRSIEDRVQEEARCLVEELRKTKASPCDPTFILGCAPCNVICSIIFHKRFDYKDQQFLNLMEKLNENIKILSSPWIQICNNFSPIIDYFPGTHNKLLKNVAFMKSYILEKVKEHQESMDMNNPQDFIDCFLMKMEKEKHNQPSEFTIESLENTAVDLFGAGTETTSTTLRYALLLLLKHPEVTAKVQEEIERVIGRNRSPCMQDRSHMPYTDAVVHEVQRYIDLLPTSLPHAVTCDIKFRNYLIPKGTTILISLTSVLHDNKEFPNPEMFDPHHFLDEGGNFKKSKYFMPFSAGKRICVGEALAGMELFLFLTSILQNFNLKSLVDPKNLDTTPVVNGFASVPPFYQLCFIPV

[12] = Inhibition of recombinant Plasmodium falciparum PKG using FAM-PKA peptide as fluorescent substrate preincubated for 15 mins followed by substrate addition measured after 1 hr by fluorescence polarization based IMAP assay
[13] = Aqueous solubility of compound in PBS at pH 7.4 incubated for 90 mins by UV spectrophotometric analysis; format: physicochemical
[14] = Protein binding in C57BL/6 mouse plasma assessed as unbound fraction incubated for 22 hrs by LC-MS/MS analysis; format: ADME, cell-free
[15] = Efflux ratio of apparent permeability from basolateral to apical side over apical to basolateral side in human Caco-2 cells incubated for 120 mins by LC-MS/MS analysis; format: ADME, cell-based
Plasmodium berghei = experiment: Antimalarial activity against Plasmodium berghei sporozoites expressing Luciferase infected in human HepG2 cells assessed as reduction in parasite growth incubated for 48 hrs by ONE-Glo luciferase assay; format: functional, organism-based
[16] = Plasmodium falciparum, 3D7, 72 h
[17] = Plasmodium berghei, HepG2, 48 h

Sequence of Voltage-gated inwardly rectifying potassium channel KCNH2 (Q12809 whole entry): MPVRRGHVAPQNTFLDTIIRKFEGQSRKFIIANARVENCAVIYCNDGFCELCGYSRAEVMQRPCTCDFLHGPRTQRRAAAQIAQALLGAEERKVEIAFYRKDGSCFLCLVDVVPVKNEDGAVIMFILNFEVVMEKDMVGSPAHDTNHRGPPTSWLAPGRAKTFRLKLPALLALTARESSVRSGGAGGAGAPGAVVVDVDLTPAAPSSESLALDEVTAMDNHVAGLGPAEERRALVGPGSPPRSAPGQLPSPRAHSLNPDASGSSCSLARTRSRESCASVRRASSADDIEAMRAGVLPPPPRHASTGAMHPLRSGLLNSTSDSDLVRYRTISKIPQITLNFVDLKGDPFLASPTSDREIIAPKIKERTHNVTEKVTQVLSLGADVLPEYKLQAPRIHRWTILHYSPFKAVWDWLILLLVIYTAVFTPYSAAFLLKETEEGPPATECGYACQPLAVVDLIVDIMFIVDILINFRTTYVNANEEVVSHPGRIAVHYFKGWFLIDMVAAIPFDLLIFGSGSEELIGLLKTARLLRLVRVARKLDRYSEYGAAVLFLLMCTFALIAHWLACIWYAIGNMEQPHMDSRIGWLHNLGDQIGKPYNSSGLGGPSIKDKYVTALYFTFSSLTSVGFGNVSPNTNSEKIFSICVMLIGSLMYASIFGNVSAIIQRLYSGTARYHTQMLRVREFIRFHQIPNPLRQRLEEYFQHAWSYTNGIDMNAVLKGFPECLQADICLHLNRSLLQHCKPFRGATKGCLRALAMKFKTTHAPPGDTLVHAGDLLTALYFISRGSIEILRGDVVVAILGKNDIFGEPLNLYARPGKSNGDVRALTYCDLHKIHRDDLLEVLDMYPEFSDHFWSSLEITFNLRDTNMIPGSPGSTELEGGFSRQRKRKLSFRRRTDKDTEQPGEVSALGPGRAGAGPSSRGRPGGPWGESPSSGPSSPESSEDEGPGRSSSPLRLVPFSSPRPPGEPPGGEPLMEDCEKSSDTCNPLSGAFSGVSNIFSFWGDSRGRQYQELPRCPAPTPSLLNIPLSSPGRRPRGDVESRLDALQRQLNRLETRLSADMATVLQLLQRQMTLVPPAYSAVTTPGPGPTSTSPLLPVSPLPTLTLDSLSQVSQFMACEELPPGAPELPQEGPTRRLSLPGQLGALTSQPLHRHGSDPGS

Row | Structure (SMILES) | IC50 [1] [nM] | microsomal CLint [2] [µL/min/mg] | half-life [3] [min] | fraction unbound at 17 h [4] | IC50 (Cytochrome P450 2D6) [nM] | remaining at 1 h [5] [%] | IC50 (Cytochrome P450 3A4) [nM] | inhibition (Homo sapiens) [%] | Papp at 2 h [6] [×10⁻⁶ cm/s] | microsomal CLint [7] [µL/min/mg] | EC50 (Plasmodium falciparum [8]; [16]) [nM] | EC50 (Plasmodium falciparum [9]; Plasmodium falciparum, 72 h) [nM] | remaining at 1 h [10] [%] | half-life [11] [min] | IC50 (Cytochrome P450 2C9) [nM] | IC50 [12] [nM] | pIC50 [12] | solubility at 1.5 h [13] [µM] | fraction unbound at 22 h [14] | efflux ratio at 2 h [15] | also measured
1 | C[C@H]1CN(C)CC[C@@H]1c1cc(-c2ccncc2)c(-c2ccc(F)cc2)[nH]1.Cl.Cl | > 10000 | < 23 | > 60 | 0.63 | 6150 | 99 | 4780 | 30 | 22.6 | < 23 | 80 | 780 | 100 | > 60 | > 10000 | 14 | 7.87 | 187 | 0.122 | 1.52 | EC50 (Plasmodium berghei; [17]): 170 nM
2 | C[C@@H]1CN(C)CC[C@@H]1c1cc(-c2ccncc2)c(-c2ccc(F)cc2)[nH]1.Cl.Cl | > 10000 | < 23 | > 60 | 0.502 | > 10000 | 103 | > 10000 | -0.3 | 20.1 | 38.8 | 50 | 760 | 99 | 35.7 | > 10000 | 13 | 7.89 | 181 | 0.155 | 1 | EC50 (Plasmodium berghei; [17]): 70 nM
3 | CC1CN(C)CC[C@H]1c1cc(-c2ccncc2)c(-c2ccc(F)cc2)[nH]1.Cl.Cl (single isomer, unassigned) | > 10000 | 49.2 | 28.2 | 0.587 | 5670 | 104 | > 10000 | 0.4 | 17 | 24.1 |  |  | 101 | 57.5 | > 10000 | 14 | 7.85 | 190 | 0.115 | 1.27 | EC50 (Plasmodium falciparum [8]): 170 nM; EC50 (Plasmodium falciparum [9]): 900 nM; EC50 (Plasmodium berghei): 350 nM
4 | C[C@@H]1CN(C)CCC1c1cc(-c2ccncc2)c(-c2ccc(F)cc2)[nH]1.Cl.Cl (single isomer, unassigned) | > 10000 | 44.5 | 31.2 | 0.518 | 5740 | 103 | 7480 | 45 | 22.1 | < 23 |  |  | 98 | > 60 | > 10000 | 9 | 8.05 | 176 | 0.119 | 1.59 | EC50 (Plasmodium falciparum [8]): 50 nM; EC50 (Plasmodium falciparum [9]): 1220 nM; EC50 (Plasmodium berghei): 60 nM
